The values that follow come from patent publication US20080138391A1, “SKIN-FRIENDLY DRUG COMPLEXES FOR TRANSDERMAL ADMINISTRATION” (priority 2006, published 2008).

The series is described as follows: Appearance of the composition and solubilization of the drug. The format is physicochemical. As to the method:
Following here is an exemplary description of the manufacturing process used to make the pharmaceutical compositions of the present invention. Generally, the active agent is introduced either alone or as a solution in a colloidal dispersion of carbomer. […] If desired, further ingredients such as cosolvents, buffering agents, antioxidants, preservatives, permeation enhancers, etc, as mentioned herein above were added under mechanical stirring.

For the compound `CCCN(CCC)CCc1cccc2c1CC(=O)N2` [ropinirole free base, ropinirole], the “Amount of ropinirole free base solubilized in water as a result of complexation with carbomer” value (complexation with carbomer, alcohol-free) is “at least 3.00 % w/w”. Also, where the note is “no complexation”, the “Solubility of ropinirole free base in water” value was “practically insoluble in water”.
